Columns and labels:
liver = settings: in vivo; cited from earlier work
[1] = tested on: mRNA expressed from the genes (A) to (D) in rat liver; assay: Behavior of genes (mRNA expression level, oligo-DNA microarray) in rat liver after 28-day oral administration; assay type: in vivo
Outline: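 Oral gavage, once daily × 28 days; male F344 SPF rats, 5 wk, n=4/group; vehicle controls given equal solvent volume. Liver excised day 28, total RNA purified. Significance: ≥1.5× or ≤1/1.5 of vehicle, direction concordant with other carcinogens.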

rodent = settings: in vivo; cited from earlier work
[2] = gene group (A), Unigene No. Rn.167075
[3] = gene group (C), Unigene No. Rn.120914

Cc1cc(N)ccc1N.O=S(=O)(O)O [TS060, 2,5-Toluenediamine SO4]
Liver carcinogenicity (liver): Cr− | Behavior of gene caused by administration of chemical substance, Gene No. 4846 ([1]; gene group (A), Unigene No. Rn.144554): − | Behavior of gene caused by administration of chemical substance, Gene No. 2026 [1, 2]: − | Behavior of gene caused by administration of chemical substance, Gene No. 4218 [1, 2]: − | Behavior of gene caused by administration of chemical substance, Gene No. 6182 ([1]; gene group (A), Unigene No. Rn.5834): − | Behavior of gene caused by administration of chemical substance, Gene No. 5600 ([1]; gene group (A), Unigene No. Rn.9836): − | Behavior of gene caused by administration of chemical substance, Gene No. 1494 ([1]; gene group (B), Unigene No. Rn.1430): − | Behavior of gene caused by administration of chemical substance, Gene No. 2045 ([1]; gene group (B), Unigene No. Rn.19329): − | Behavior of gene caused by administration of chemical substance, Gene No. 2203 ([1]; gene group (B), Unigene No. Rn.21240): − | Behavior of gene caused by administration of chemical substance, Gene No. 533 ([1]; gene group (C), Unigene No. Rn.106184): − | Behavior of gene caused by administration of chemical substance, Gene No. 725 ([1]; gene group (C), Unigene No. Rn.108075): − | Behavior of gene caused by administration of chemical substance, Gene No. 1163 ([1]; gene group (C), Unigene No. Rn.11766): + | Behavior of gene caused by administration of chemical substance, Gene No. 4973 ([1]; gene group (C), Unigene No. Rn.118529): − | Behavior of gene caused by administration of chemical substance, Gene No. 4095 ([1]; gene group (C), Unigene No. Rn.119024): − | Behavior of gene caused by administration of chemical substance, Gene No. 1334 [1, 3]: − | Behavior of gene caused by administration of chemical substance, Gene No. 6620 [1, 3]: − | Behavior of gene caused by administration of chemical substance, Gene No. 6303 ([1]; gene group (C), Unigene No. Rn.123063): − | Behavior of gene caused by administration of chemical substance, Gene No. 5878 ([1]; gene group (C), Unigene No. Rn.143213): − | Behavior of gene caused by administration of chemical substance, Gene No. 1131 ([1]; gene group (C), Unigene No. Rn.144946): + | Behavior of gene caused by administration of chemical substance, Gene No. 1562 ([1]; gene group (C), Unigene No. Rn.14744): − | Behavior of gene caused by administration of chemical substance, Gene No. 1741 ([1]; gene group (C), Unigene No. Rn.1647): − | Behavior of gene caused by administration of chemical substance, Gene No. 893 ([1]; gene group (C), Unigene No. Rn.164817): + | Behavior of gene caused by administration of chemical substance, Gene No. 6026 ([1]; gene group (C), Unigene No. Rn.167685): − | Behavior of gene caused by administration of chemical substance, Gene No. 154 ([1]; gene group (C), Unigene No. Rn.185941): − | Behavior of gene caused by administration of chemical substance, Gene No. 1993 ([1]; gene group (C), Unigene No. Rn.18728): − | Behavior of gene caused by administration of chemical substance, Gene No. 813 ([1]; gene group (C), Unigene No. Rn.201760): − | Behavior of gene caused by administration of chemical substance, Gene No. 2494 ([1]; gene group (C), Unigene No. Rn.23969): − | Behavior of gene caused by administration of chemical substance, Gene No. 2546 ([1]; gene group (C), Unigene No. Rn.24561): − | Behavior of gene caused by administration of chemical substance, Gene No. 3776 ([1]; gene group (C), Unigene No. Rn.43232): − | Behavior of gene caused by administration of chemical substance, Gene No. 3929 ([1]; gene group (C), Unigene No. Rn.4620): + | Behavior of gene caused by administration of chemical substance, Gene No. 1119 ([1]; gene group (C), Unigene No. Rn.9757): − | Behavior of gene caused by administration of chemical substance, Gene No. 6742 ([1]; gene group (C), Unigene No. Rn.9779): − | Behavior of gene caused by administration of chemical substance, Gene No. 5634 ([1]; gene group (C), Unigene No. Rn.9862): + | Behavior of gene caused by administration of chemical substance, Gene No. 5726 ([1]; gene group (D), Unigene No. Rn.9939): − | Carcinogenicity (rodent): C−

O=C1N=C([O-])NC1(c1ccccc1)c1ccccc1.[Na+] [TS069, Phenytoin Na]
Liver carcinogenicity (liver): Cr− | Behavior of gene caused by administration of chemical substance, Gene No. 154 ([1]; rat, in vivo): + | Behavior of gene caused by administration of chemical substance, Gene No. 533 ([1]; rat, in vivo): − | Behavior of gene caused by administration of chemical substance, Gene No. 725 ([1]; rat, in vivo): + | Behavior of gene caused by administration of chemical substance, Gene No. 813 ([1]; rat, in vivo): − | Behavior of gene caused by administration of chemical substance, Gene No. 893 ([1]; rat, in vivo): − | Behavior of gene caused by administration of chemical substance, Gene No. 1119 ([1]; rat, in vivo): − | Behavior of gene caused by administration of chemical substance, Gene No. 1131 ([1]; rat, in vivo): − | Behavior of gene caused by administration of chemical substance, Gene No. 1163 ([1]; rat, in vivo): − | Behavior of gene caused by administration of chemical substance, Gene No. 1334 ([1]; rat, in vivo): − | Behavior of gene caused by administration of chemical substance, Gene No. 1494 ([1]; rat, in vivo): + | Behavior of gene caused by administration of chemical substance, Gene No. 1562 ([1]; rat, in vivo): − | Behavior of gene caused by administration of chemical substance, Gene No. 1741 ([1]; rat, in vivo): + | Behavior of gene caused by administration of chemical substance, Gene No. 1993 ([1]; rat, in vivo): − | Behavior of gene caused by administration of chemical substance, Gene No. 2026 ([1]; rat, in vivo): − | Behavior of gene caused by administration of chemical substance, Gene No. 2045 ([1]; rat, in vivo): + | Behavior of gene caused by administration of chemical substance, Gene No. 2203 ([1]; rat, in vivo): + | Behavior of gene caused by administration of chemical substance, Gene No. 2494 ([1]; rat, in vivo): − | Behavior of gene caused by administration of chemical substance, Gene No. 2546 ([1]; rat, in vivo): − | Behavior of gene caused by administration of chemical substance, Gene No. 3776 ([1]; rat, in vivo): − | Behavior of gene caused by administration of chemical substance, Gene No. 3929 ([1]; rat, in vivo): + | Behavior of gene caused by administration of chemical substance, Gene No. 4095 ([1]; rat, in vivo): + | Behavior of gene caused by administration of chemical substance, Gene No. 4218 ([1]; rat, in vivo): − | Behavior of gene caused by administration of chemical substance, Gene No. 4846 ([1]; rat, in vivo): − | Behavior of gene caused by administration of chemical substance, Gene No. 4973 ([1]; rat, in vivo): + | Behavior of gene caused by administration of chemical substance, Gene No. 5600 ([1]; rat, in vivo): − | Behavior of gene caused by administration of chemical substance, Gene No. 5634 ([1]; rat, in vivo): + | Behavior of gene caused by administration of chemical substance, Gene No. 5726 ([1]; rat, in vivo): − | Behavior of gene caused by administration of chemical substance, Gene No. 5878 ([1]; rat, in vivo): − | Behavior of gene caused by administration of chemical substance, Gene No. 6026 ([1]; rat, in vivo): − | Behavior of gene caused by administration of chemical substance, Gene No. 6182 ([1]; rat, in vivo): + | Behavior of gene caused by administration of chemical substance, Gene No. 6303 ([1]; rat, in vivo): − | Behavior of gene caused by administration of chemical substance, Gene No. 6620 ([1]; rat, in vivo): − | Behavior of gene caused by administration of chemical substance, Gene No. 6742 ([1]; rat, in vivo): − | Carcinogenicity (rodent): C+
